From patent EP3338775B1, “USE OF BUTYLIDENEPHTHALIDE” (Everfront Biotech Inc., priority 2015, dated 2017)
Several values for one entry are separate records, joined by “and”; a condition that tells them apart may be missing. Equal entries are not always repeated.

Assays:
Type in all cases: cell-based
[1] = tested on: malignant glioma DBTRG cells; assay: MTT cell viability assay on malignant glioma DBTRG cells; conditions: 24-hour group
Experimental: Thereafter, a cell viability assay, MTT assay, was utilized to analyze the viabilities of brain CSCs ^CD133+ and malignant glioma DBTRG cells. […] The results are shown in Figure 1A and Figure 1B for 24-hour group and 48-hour group (i.e., the treatment for 24 hours and 48 hours) and in Table 1 for 24-hour group.

ALDH = assay: ALDEFLUOR flow cytometry analysis of ALDH activity in HNC-TIC-like oral stem cells; conditions: DEAB-added group (150 µM DEAB), with or without BP treatment; Figure 8
Experimental: ALDH protein is also an important stemness-maintenance marker of cancer stem cells and participates in the regulation of the self-renewal and differentiation of cancer stem cells. HNC-TIC-like oral stem cells (i.e., ALDH1^+CD44^+-1 cell line or ALDH1^+CD44^+-2 cell line) were treated with different concentrations (0, 25 and 50 µg/ml) of BP for 24 hours, and then, 1 ×10^5 cells obtained from each group were separately suspended in 50 µl of a stem cell detection kit (i.e., ALDEFLUOR array kit, purchased from […] Technologies Inc., Vancouver, Canada) buffer and the cell suspension of each group was separately added with ALDEFLUOR to a final concentration of 1 µM. Thereafter, a sample of each group was stained by […] and then analyzed by flow cytometry analysis to determine the ALDH activity of HNC-TIC-like oral stem cells (i.e., ALDH1^+CD44^+-1 cell line and ALDH1^+CD44^+-2 cell line).
The above experimental procedure was repeated, but the cell suspension of each group was further added with N,N-diethylaminobenzaldehyde (DEAB, i.e., an inhibitor of ALDH) to a final concentration of 150 µM of DEAB separately.

brain CSCs ^CD133+ = assay: MTT cell viability assay on brain CSCs CD133+; conditions: 24-hour group, MTT assay; read-out: IC50 to brain CSCs ^CD133+
Text: Thereafter, a cell viability assay, MTT assay, was utilized to analyze the viabilities of brain CSCs ^CD133+ and malignant glioma DBTRG cells. […]

Row | SMILES | IC50 [1] | live cells with ALDH activity, of total live cells (ALDH) [%] | IC50 (brain CSCs ^CD133+)
1 | O=NN(CCCl)C(=O)NCCCl [BCNU, bis-chloroethylnitrosourea] | 352 µM and 75.4 µg/mL | – | –
2 | CCN(CC)c1ccc(C=O)cc1 [DEAB, N,N-diethylaminobenzaldehyde, reference compound] | – | 0.1 | –
3 | Cn1nnc2c(C(N)=O)ncn2c1=O [TMZ, temozolomide, reference compound] | 1.66 mM and 322 µg/mL | – | > 1.6 mM and > 311 µg/mL
